Test results as given in patent publication US7820689B2, “Methods and compositions for preventing or treating cardiovascular disease” (priority 2006, dated 2010).
Like-named read-outs stand apart in the source and are kept apart here.

What was measured:
[1] = test system: IL-6 release from THP-1 cells after LPS stimulation; experiment: LPS-induced IL-6 release in THP-1 macrophage culture (ELISA); assay type: cell-based, human
Protocol: (§1) THP-1 cells were grown in the RPMI-1640 medium containing 10% fetal bovine serum at 37° C. in 5% CO2. The cells were differentiated to macrophages after treatment of the culture with 100 nM PMA for 24 hours. The cell suspension (5×10^5) was added in 0.5 mL into each well of the tissue culture plates. For each experiment, naloxone was prepared immediately before use. LPS was dissolved in sterile water and stored at −70° C. in aliquots. LDL was isolated from human endotoxin-free heparin plasma and was oxidized using CuSO4. In brief, LDL (1 mL, 1 mg/mL) was dialyzed in 500 mL phosphate-buffered saline (PBS, pH 7.4) overnight. Copper sulfate was added to a final concentration of 5 μM, and the LDL was allowed to oxidize at room temperature for 24 hours.
(§2) The supernatants were harvested and the TNF-α, IL-6, and MCP-1 levels were determined by ELISA. Superoxide production in the THP-1 cell culture was measured by lucigenin-enhanced chemiluminescence as described previously (Khadour F H, Panas D, Ferdinandy P, et al. Am J Physiol Heart Circ Physiol, 28:H1108-15 2002). LPS-treated THP-1 cells were treated with PBS containing 1.25 mM lucigenin, and counts were obtained for a 10-minute period in a luminometer (Berthold Technologies, Germany) as relative light units (RLU) emitted. Background counts determined in cell-free preparations were subtracted. Superoxide levels were reported as RLU per 10 minutes and were normalized to the volume (mL) of cell suspension added (i.e., RUL/10 min/mL).

THP-1 cells = experiment: MTT cell viability assay; assay type: cell-based, human; conditions: with or without LPS
Protocol: Cell viability was determined with the 3 (4,5-dimethylthiazol-2-yl) 2,5-diphenyltetrazolium bromide (MTT) assay in each treatment group described above. Briefly, fresh medium was added to cells together with 10% MTT (5 mg/mL). Each plate was maintained at 37° C. for 2 hours and subsequently formazan crystals were dissolved in DMSO. Absorbance was read at a wavelength of 550 nm using a SPECTRAmax PLUS^384 spectrophotometer (Molecular Devices, CA, USA).

[2] = Serum lipid levels in apoE-deficient mice on high cholesterol diet; assay type: in vivo
Protocol: (§3) ApoE-deficient mice were fed with a high cholesterol diet containing 21% fat and 0.15% cholesterol (PMI LabDiet 40097, Richmond, Ind., USA) from 8-17 weeks of age. […] After completing the treatment, blood samples were collected by direct heart puncture when sacrificing the animals. The serum levels of total cholesterol, LDL, HDL, and triglyceride were measured by enzymatic methods using an automatic analyzer (Model 747, Hitachi Ltd. Co., Tokyo, Japan). The aorta was dissected from the aortic valve to the iliac bifurcation. To identify lipid-rich atherosclerotic lesions, the aorta was rinsed in 50% isopropanol for 2 minutes, incubated in 0.67% Oil-Red-O for 15 minutes, and washed by 10% isopropanol for 2 minutes. Using a dissection microscope, the area of each atherosclerotic lesion was measured with Image Pro Plus software (Version 3.0.1; Media Cybernetics, Inc, Silver Spring, Md., USA) and expressed as percentage of atherosclerotic area/total area of the aorta.

apoE-deficient mice = assay type: in vivo
Protocol: as §3

[3] = test system: MCP-1 release from THP-1 cells after oxLDL stimulation; experiment: oxLDL-induced MCP-1 release in THP-1 macrophage culture (ELISA); assay type: cell-based, human; conditions: 0.01 μM pretreatment, oxLDL alone 2.23±0.34
Protocol: as §1, with “For each experiment, naloxone was prepared immediately before use.” left out
as §2, with “Superoxide levels were reported as RLU per 10 minutes and were normalized to the volume (mL) of cell suspension added (i.e., RUL/10 min/mL).” left out

[4] = test system: CD45-positive cells in lungs; experiment: Pulmonary inflammatory cell (CD45-positive) infiltration in LPS-treated mice, immunofluorescence; assay type: in vivo; conditions: LPS only 103±16
Protocol: (§4) All mice then received 20 mg/kg LPS by intraperitoneal injection. Blood samples were obtained at 6 hours after LPS injection from a catheter placed in the left carotid artery. Blood samples were centrifuged, and the plasma TNF-α levels were measured by ELISA. Lungs were harvested from the animals 6 hours after LPS injection in each group as described above. The tissues were fixed in 4% paraformaldehyde and embedded in paraffin for histopathological examination. The presence of inflammatory cells in lungs was determined by immunofluorescence. The sections were incubated with rat monoclonal antibody against mouse CD45, a leukocyte common antigen (1:50 dilution, Pharmingen). After washing, fluorescein isothiocyanate-conjugated sheep […] immunoglobulin (Amersham Pharmacia Biotech) was applied as a secondary antibody. […] The total CD45-positive cell number was counted in five randomly selected sections under high power field magnification (400×) for each mouse. Oxidative fluorescent microtopography with the oxidative fluorescent dye dihydroethidium (DHE) was used to evaluate the in situ production of superoxide in aorta. Aortas were harvested from the animals at 6 hours after LPS injection in each group as described above. Unfixed frozen ring segments were cut into 30-μm-thick sections and placed on a glass slide. DHE (10 μM) was topically applied to each tissue section and a cover slip was applied. Slides were incubated in a light-protected humidified chamber at 37° C. for 30 minutes. Fluorescence was detected with a laser scanning confocal microscope (Leica Microsystems, Germany) with excitation at 488-nm and detection at 585-nm using a long-pass filter.

[5] = test system: superoxide production in aorta; experiment: Superoxide in aorta of LPS-treated mice, DHE oxidative fluorescent microtopography; assay type: in vivo
Protocol: as §4, with “Aortas were harvested from the animals at 6 hours after LPS injection in each group as described above. Unfixed frozen ring segments were cut into 30-μm-thick sections and placed on a glass slide. DHE (10 μM) was topically applied to each tissue section and a cover slip was applied. Slides were incubated in a light-protected humidified chamber at 37° C. for 30 minutes.” left out

SMILES: COc1ccc2c(c1)[C@]13CCCC[C@@H]1[C@H](C2)N(C)CC3 [DM, (+)-3-methoxy-17-methyl-9α,13α,14α-morphinan]
- IL-6 in medium ([1]; DM 0.01 μM pretreatment, LPS alone 9.53±1.95): 6.22 ± 2.46 ng/mL
- IL-6 in medium ([1]; DM 0.1 μM pretreatment, LPS alone 9.53±1.95): 6.21 ± 1.89 ng/mL
- IL-6 in medium ([1]; DM 1 μM pretreatment, LPS alone 9.53±1.95): 5.36 ± 1.76 ng/mL
- cell viability (MTT) (THP-1 cells; 0.01, 0.1, or 1 μM DM): no significant changes of the cell viability
- total cholesterol, triglyceride, LDL, and HDL levels ([2]; DM treatment for 10 weeks vs controls): no significant differences
- aortic atherosclerotic lesion area (apoE-deficient mice; DM 5 mg/kg/day 10 weeks, P=NS, controls 16.9±4.3): 14.1±5.7%
- aortic atherosclerotic lesion area (apoE-deficient mice; DM 10 mg/kg/day 10 weeks, controls 16.9±4.3): 8.2±3.8%
- aortic atherosclerotic lesion area (apoE-deficient mice; DM 20 mg/kg/day 10 weeks, controls 16.9±4.3): 5.0±2.0%
- aortic atherosclerotic lesion area (apoE-deficient mice; DM 40 mg/kg/day 10 weeks, controls 16.9±4.3): 4.6±3.6%

SMILES: C=CCN1CC[C@]23c4c5ccc(O)c4O[C@H]2C(=O)CC[C@@]3(O)[C@H]1C5 [Naloxone, 17-allyl-4,5α-epoxy-3,14-dihydroxymorphinan-6-one]
- IL-6 in medium ([1]; 0.01 μM pretreatment, LPS alone 5.02±0.14): 3.74 ± 0.31 ng/mL
- IL-6 in medium ([1]; 0.1 μM pretreatment, LPS alone 5.02±0.14): 3.28 ± 0.14 ng/mL
- IL-6 in medium ([1]; 1 μM pretreatment, LPS alone 5.02±0.14): 3.44 ± 0.48 ng/mL
- MCP-1 in medium [3]: 0.95 ± 0.28 ng/mL
- cell viability (MTT) (THP-1 cells; 0.01, 0.1, or 1 μM naloxone): no significant changes of the cell viability
- infiltration of inflammatory cells in the lungs (CD45-positive cell number) ([4]; 10 mg/kg i.p. before LPS): 74±10
- infiltration of inflammatory cells in the lungs (CD45-positive cell number) ([4]; 20 mg/kg i.p. before LPS): 58±15
- infiltration of inflammatory cells in the lungs (CD45-positive cell number) ([4]; 25 mg/kg i.p. before LPS): 62±12
- DHE staining of aorta (superoxide), FIG. 5 ([5]; 20 mg/kg naloxone pretreatment 1 hour before LPS): staining was much more reduced
- DHE fluorescence intensity in aortic sections (superoxide) ([5]; 10, 20, and 25 mg/kg pretreatment, LPS-treated mice): significantly reduced the increase of fluorescence intensity
- total cholesterol, triglyceride, LDL, and HDL levels ([2]; naloxone 10, 20, 25 mg/kg/day i.p. 10 weeks vs PBS): no significant differences
- aortic atherosclerotic lesion area (apoE-deficient mice; 10 mg/kg/day i.p. 10 weeks, PBS 12.9±6.1): 5.2±3.8%
- aortic atherosclerotic lesion area (apoE-deficient mice; 20 mg/kg/day i.p. 10 weeks, PBS 12.9±6.1): 3.4±1.4%
- aortic atherosclerotic lesion area (apoE-deficient mice; 25 mg/kg/day i.p. 10 weeks, PBS 12.9±6.1): 1.8±1.2%
